{"source": "paper PMC6811774", "about": "“Potent, selective, and subunit‐dependent activation of TRPC5 channels by a xanthine derivative” (British Journal of Pharmacology, 2019)", "key": {"TRPC3": {"biological_target": "T1, TRPC3 (Homo sapiens, UniProt Q13507)", "T1 construct": "expressed in transfected cells; host or cells: WT HEK 293 (transient, jetPRIME)", "T1 sequence (Q13507 1-921)": "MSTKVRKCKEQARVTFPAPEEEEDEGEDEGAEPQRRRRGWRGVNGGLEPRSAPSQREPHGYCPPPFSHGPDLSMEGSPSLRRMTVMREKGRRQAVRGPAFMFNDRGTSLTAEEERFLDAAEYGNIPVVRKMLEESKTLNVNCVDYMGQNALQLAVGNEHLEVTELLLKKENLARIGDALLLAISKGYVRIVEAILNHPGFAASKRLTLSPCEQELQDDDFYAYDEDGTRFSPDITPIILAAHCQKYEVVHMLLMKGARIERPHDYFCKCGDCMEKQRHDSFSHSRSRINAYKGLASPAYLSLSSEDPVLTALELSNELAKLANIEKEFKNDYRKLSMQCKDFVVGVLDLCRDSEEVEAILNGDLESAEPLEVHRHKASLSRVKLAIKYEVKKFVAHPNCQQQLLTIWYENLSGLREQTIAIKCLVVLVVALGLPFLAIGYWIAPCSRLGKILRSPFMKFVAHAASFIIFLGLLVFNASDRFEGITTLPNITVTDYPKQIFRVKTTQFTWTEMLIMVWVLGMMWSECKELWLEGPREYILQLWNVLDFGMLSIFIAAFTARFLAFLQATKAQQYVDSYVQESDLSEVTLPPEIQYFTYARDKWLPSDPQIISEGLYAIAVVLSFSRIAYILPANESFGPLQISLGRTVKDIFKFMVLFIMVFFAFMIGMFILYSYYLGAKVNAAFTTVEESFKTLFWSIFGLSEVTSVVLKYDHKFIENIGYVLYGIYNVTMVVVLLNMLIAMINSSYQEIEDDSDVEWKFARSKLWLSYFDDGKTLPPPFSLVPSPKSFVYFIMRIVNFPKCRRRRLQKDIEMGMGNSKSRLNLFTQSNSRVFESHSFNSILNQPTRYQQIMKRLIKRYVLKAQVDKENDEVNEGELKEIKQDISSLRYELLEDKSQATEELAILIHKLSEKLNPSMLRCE", "assay": "[Ca2+]i selectivity assay, WT HEK 293 cells transiently transfected with hTRPC3, OAG activation", "format": "cell-based", "conditions": "300 nM AM237; 100 μM OAG"}, "wild-type HEK 293 cells": {"test_system": "wild-type HEK 293 cells", "assay": "[Ca2+]i measurement in wild-type HEK 293 cells", "format": "cell-based, human", "conditions": "0.3–300 nM", "description": "Intracellular concentration of Ca^2+ ([Ca^2+]i) recordings were carried out using the ratiometric Ca^2+ dye Fura‐2; 24 hr before experiments, cells were plated onto black, clear bottom poly‐D‐lysine coated 96‐well plates, and for T‐REx cells, TRPM2 or TRPC1/4/5 protein expression was induced with 1 μg·ml^−1 tetracycline at this point. All cells were used at 90% confluence. To load cells with the Fura‐2 dye, media was removed and cells were incubated with standard bath solution (SBS; composition, in mM, NaCl 130, KCl 5, glucose 8, HEPES 10, MgCl2 1.2, and CaCl2 1.5) containing 2‐μM Fura‐2 acetoxymethyl ester (Fura‐2 AM) and 0.01% pluronic acid for 1 hr at 37°C. For CHO cells stably expressing TRPV4 protein, probenecid (final concentration 2.5 mM) was present in all buffers used from the point of Fura‐2 AM application. After this incubation, cells were washed with fresh SBS and incubated at room temperature for a further 30 min. SBS was then changed to recording buffer (SBS with 0.01% pluronic acid and 0.1% DMSO to match compound buffer) immediately prior to experimentation. In the case of inhibitor studies, cells were washed twice with fresh SBS after incubation with Fura‐2 AM, followed by the addition of SBS with 0.01% pluronic acid and the relevant inhibitor or vehicle. Cells were then incubated for 30 min prior to the experiment. […]"}}}
{"smiles": "Cn1c(=O)n(CCCO)c(=O)c2c1nc(Oc1ccc(Cl)c(OC(F)(F)F)c1)n2Cc1ccc(Cl)cc1", "note": "[AM237]", "values": [{"measurement": "Activation or inhibition of TRPC3", "setting": "TRPC3", "result": "no activation or inhibition"}, {"measurement": "Effect on [Ca2+]i in wild-type HEK 293 cells", "setting": "wild-type HEK 293 cells", "result": "did not increase"}]}
